Earlier results, collected in patent US20030031589A1, “Control of gaseous sterilisation” (priority 2002, published 2003).
Read-outs that look alike come from different tables or passages of the source.

Experiments:
[1] = tested on: spores
[2] = high relative humidity
[3] = tested on: bacillus subtilis; conditions: aqueous solutions; 'D' values depend on concentration and temperature

Q: With `CC(=O)OO` [Peracetic vapour, peracetic acid] as the compound, how does the effectiveness of vapour ([1]; RH of 20%) read?
A: ineffective

Q: What about the effectiveness of vapour ([1]; RH of 80%) of the same compound?
A: effective

Q: Which “effectiveness of vapour vs relative humidity” value [2] does the source give for `C=O` [formalin vapour, formaldehyde] here?
A: more effective at high relative humidity

Q: Which sporicidal activity [3] does the source give for `OO` [hydrogen peroxide] here?
A: sporicidal
